Here are results for eleven molecules from patent US20100196874A1, “METHOD OF DRUG DESIGN” (priority 2006, published 2010).

Data set [1] concerns CVB3. The note with it: for IC50: read-out: IC5, HeLa cell culture with CVB3; for order of antiviral potency: CVB3, same order as against HRV2; for antiviral effect against CVB3 relative to cytotoxic effect: % virus yield versus % cell metabolism, HeLa cells, FIG. 1.
From the text: (§1) The toxicity of the compounds (CC50, being the concentration causing 50% reduction in cell metabolism as measured by Alamar Blue assay) reflects the relative activity of each compound against cellular ion channels, while the antiviral activity (IC50) reflects the relative activity of each compound against the RdRP of CVB3.
The test system of data set [2] is HeLa cells.
From the text: as §1
The subject of data set [3] is CVB3. Kind of data set: Time of addition of drugs to CVB3-infected cultures, total virus yield. It counts as cell-based, Coxsackievirus B3. The settings on record: 400 μM amiloride or 25 μM EIPA, added up to 2 hours post-infection, yield at 10 hours. As to the method:
Cultures were incubated until 10 hours post-infection, then the total virus yield (released virus+intracellular virus) was quantitated (FIG. 2A). Kinetics of virus production was measured in parallel (FIG. 2B). […] This contrasts with well-known antiviral drugs active against picornaviruses such as Pleconaril, which prevent uncoating and/or binding to the cell.

The subject of data set [4] is HRV2. The note with it: cited from earlier work.
Data set [5] deals with amiloride-resistant and guanidine-resistant CVB3 clones. Put plainly: Cross-resistance of amiloride-resistant and guanidine-resistant virus clones. It counts as cell-based, Coxsackievirus B3.
The subject of data set [6] is CVB3 mutants S299T, A372V, D48G. Put plainly: Drug sensitivity of CVB3 carrying single introduced mutations. It counts as cell-based, Coxsackievirus B3. The settings on record: for effect of D48G mutation on virus sensitivity: 2A protein mutation by itself; for sensitivity of viruses containing S299T or A372V mutations: 3D protein mutations, FIG. 11.
Data set [7] concerns CVB3. Put plainly: Viral RNA synthesis, 3H-uridine pulse label. It counts as cell-based, Coxsackievirus B3. The note with it: treated between four and five hours post infection, compared to untreated cells. As to the method:
A standard method to determine which of the two processes is inhibited directly is to add the inhibitor and pulse-label viral RNA and proteins at the time in the replication cycle when sufficient amounts of RNA and proteins have been produced to allow continuation of one process independent of the other.
In a further set of experiments, the effect of the drugs on viral protein synthesis (see FIG. 5) and viral RNA synthesis (see FIG. 6) was determined. Cells were infected as described in Examples 2 and 3, and drugs were added to cells at four hours post infection. Radioactive labels (35S-methionine for proteins, 3H-uridine for RNA) were added to cells from 4.5-5 h post infection. Treatment with GHCl, which inhibits enteroviral RNA replication but not protein synthesis was used as a control.

For data set [8], the system named is CVB3. Put plainly: Reversibility: compounds removed at various times post-infection, CVB3 yield at 10 hours. It counts as cell-based, Coxsackievirus B3. The note with it: compounds removed at 1, 2 or 4 hours post-infection, HeLa cells. As to the method: Virus replication was then allowed to continue until 10 hours post-infection.
The test system of data set [9] is CVB3. Put plainly: Release of virus from CVB3-infected cells. It counts as cell-based, Coxsackievirus B3. The note with it: compared to untreated controls, FIG. 3.
For data set [10], the system named is CVB3. Kind of data set: Viral assembly: viral RNA (3H-uridine) versus virus produced. The note with it: 3H-uridine labelling; 25 micromolar EIPA (compared with 500 micromolar guanidine), 400 micromolar amiloride. It counts as cell-based, Coxsackievirus B3. How it is done:
In a further set of experiments, the effect of the drugs on viral assembly was determined. […] Guanidine is well known to inhibit the initiation of viral RNA replication through its effect on the viral 2C protein, but has no effect on the assembly of virus from RNA that is replicated in its presence. Infected cells were incubated with 3H-uridine to label viral RNA, and RNA was detected by electrophoresis and autoradiography.

[11] abbreviates: concentration causing 50% reduction in cell metabolism, Alamar Blue assay, HeLa.

Read-outs that look alike come from different tables or passages of the source.

On to `N=C(NCc1ccc(Cl)cc1Cl)NC(=O)c1nc(Cl)c(N)nc1N` [2,4-DCB], for which the IC50 in data set [1] stood at 5 µM. This molecule also returned a CC5 in data set [2] (setting [11]) of 14 µM.

Consider `N/C(=N\C(=O)c1nc(Cl)c(N)nc1N)NCc1ccc(Cl)c(Cl)c1` [3,4-DCB], for which the IC50 in data set [1] stood at 5 µM. In data set [2] (setting [11]), this molecule displayed a CC5 of 14 µM.

As for `NC(N)=NC(=O)c1nc(Cl)c(N)nc1N` [Amiloride, 3,5-diamino-6-chloro-N-(diaminomethylidene) pyrazine-2-carboxamide], in data set [1], the “order of antiviral potency” value is given as “EIPA>benzamil>amiloride” and the IC50 worked out at 50 µM. The “reduction of virus replication by time of addition” value in [3] is on record as “fully effective”. For the same molecule, the “effect upon HRV2 RNA replication” value in [4] is reported as “no effect”. Moreover, the “sensitivity of guanidine-resistant virus clones to antiviral effect” value in data set [5] (six clones of guanidine-resistant virus) is “remained sensitive”. Also, in data set [6], the “effect of D48G mutation on virus sensitivity” value is listed as “no significant effect” and the “sensitivity of viruses containing S299T or A372V mutations” value was “reduced sensitivity”. Moreover, in data set [7], the “amount of viral RNA synthesis” value is “dramatically reduced”. The “CVB3 production at 10 hours post-infection after removal of compound” value in data set [8] is on record as “equivalent to that of the untreated cultures”. Besides, the “proportion of extracellular virus” value in data set [9] is listed as “slight increase”. Besides, in [10], the “amount of viral RNA produced” value was “greatly reduced”. Further, in data set [2], the CC5 is over 1000 µM.

Turning to `N/C(=N\C(=O)c1nc(Cl)c(N)nc1N)NCc1ccccc1` [Benzamil], in [1], the “antiviral effect against CVB3 relative to cytotoxic effect” value is given as “selective antiviral effect”, the “order of antiviral potency” value is “EIPA>benzamil>amiloride” and the IC50 stood at 10 µM. This molecule also came in with a CC5 in data set [2] (setting [11]) of 100 µM.

Take `CNC(N)=NC(=O)c1cc(Cl)ccc1O` [CHMG]: the IC50 in data set [1] came out at 9 µM. In data set [2] (setting [11]), this molecule displayed a CC5 of 155 µM.

For `CN(C)c1nc(N)c(C(=O)N=C(N)N)nc1Cl` [DMA], the IC50 in [1] amounted to 90 µM. The CC5 in data set [2] (setting [11]) came to 190 µM.

With `CCN(c1nc(N)c(C(=O)N=C(N)N)nc1Cl)C(C)C` [EIPA, 5-(N-ethyl-N-isopropyl)amiloride], in data set [1], the “antiviral effect against CVB3 relative to cytotoxic effect” value is “selective antiviral effect”, the “order of antiviral potency” value was “EIPA>benzamil>amiloride” and the IC50 worked out at 2 µM. In addition, the “reduction of virus replication by time of addition” value in [3] is “fully effective”. In addition, the “effect upon HRV2 RNA replication” value in data set [4] is listed as “no effect”. Besides, the “effect on HRV2 release” value in data set [4] (previous data) is “inhibitory effect”. For the same molecule, in data set [6], the “effect of D48G mutation on virus sensitivity” value is recorded as “no significant effect” and the “sensitivity of viruses containing S299T or A372V mutations” value was “reduced sensitivity”. Also, in data set [7], the “amount of viral RNA synthesis” value is recorded as “dramatically reduced”. Besides, the “CVB3 production at 10 hours post-infection after removal of compound” value in [8] is “equivalent to that of the untreated cultures”. Besides, the “proportion of extracellular virus” value in [9] is reported as “slight increase”. Also, the “amount of viral RNA produced” value in data set [10] is “equivalent amounts of viral RNA”. Further, the CC5 in data set [2] (setting [11]) is 25 µM.

For `NC(N)=NC(=O)c1nc(Cl)c(N2CCCCCC2)nc1N` [HMA, 5-(N,N-hexamethylene)amiloride], in data set [1], the “antiviral effect against CVB3 relative to cytotoxic effect” value was “selective antiviral effect” and the IC50 was determined as 2 µM. The molecule further gave a CC5 in data set [2] of 25 µM.

Turning to `CC(C)CN(C)c1nc(N)c(C(=O)N=C(N)N)nc1Cl` [MIBA], in [1], the IC50 was found to be 2 µM. The CC5 in data set [2] (setting [11]) worked out at 25 µM.

For the molecule `Cl.N=C(N)N` [guanidine, guanidine hydrochloride], the “sensitivity of amiloride-resistant virus clones to antiviral effect” value in data set [5] (six clones of amiloride-resistant virus) is on record as “remained sensitive”.

On to CHPG, for which, in data set [1], the IC50 was 2 µM. Further, in [2] (setting [11]), the CC5 was 15 µM.
